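How tested: cells in 96-well plates exposed to compound for 48 hours at five concentrations. TGI denotes the concentration required for complete inhibition of growth.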

Here are results for twelve molecules from PubChem BioAssay (NCI).

Some test systems named below: HCC-2998 colon; HL-60(TB) leukemia; K-562 leukemia; MDA-MB-435; NCI/ADR-RES ovarian; OVCAR-3 ovarian; OVCAR-4 ovarian; RXF 393 renal; SF-295 CNS; SF-539 CNS; SK-MEL-5 melanoma; U251 CNS; SNB-75 CNS.
Holding throughout (experiment): DTP human tumour cell line panel, 48 h

Usually TGI stands for the concentration at which net growth stops. A high value points to less potent growth arrest. Turning to `COC(=O)CC1(O)C(C=C(C)C)C(C(=O)OC)C(=O)C(C(=O)OC)C1C(=O)OC` (stereo unspecified), the TGI in the test on HCC-2998 colon, in the test with HL-60(TB) leukemia, in the test with K-562 leukemia, in the test with MDA-MB-435, with NCI/ADR-RES ovarian and with OVCAR-3 ovarian was more than 100 µM each time. In addition, the total growth inhibition concentration (TGI) in the test on OVCAR-4 ovarian, with RXF 393 renal, in the test on SF-295 CNS, with SF-539 CNS, in the test on SK-MEL-5 melanoma and in the test on U251 CNS was more than 100 µM in each case.
Consider `COc1ncc(C#CC(=O)c2ccccc2OC)c(OC)n1`, for which the TGI with HCC-2998 colon is 13 µM; in the test with HL-60(TB) leukemia, 4.63 µM; in the test on K-562 leukemia, more than 42.9 µM; with MDA-MB-435 it was 8.44 µM; in the test with NCI/ADR-RES ovarian, 4.78 µM; in the test with OVCAR-3 ovarian, 8.27 µM. In addition, the TGI in the test on OVCAR-4 ovarian worked out at 20.7 µM; with RXF 393 renal, 3.32 µM; in the test on SF-295 CNS, 39.7 µM; with SK-MEL-5 melanoma it was 5.85 µM; with SNB-75 CNS, 10.2 µM; with U251 CNS it was 8.33 µM.
For `COc1ccccc1/C=C1/Sc2scc(CC(=O)Nc3ccccc3)[n+]2C1=O`, the TGI is more than 100 µM with HCC-2998 colon; 47.1 µM in the test on HL-60(TB) leukemia; more than 100 µM with MDA-MB-435; 59.9 µM with NCI/ADR-RES ovarian; 43.4 µM in the test on OVCAR-3 ovarian; more than 100 µM in the test with OVCAR-4 ovarian. The concentration for total growth inhibition (TGI) is 80.8 µM with RXF 393 renal; more than 100 µM with SF-295 CNS; more than 100 µM in the test with SF-539 CNS; 36 µM with SK-MEL-5 melanoma; more than 100 µM in the test with SNB-75 CNS; more than 100 µM in the test on U251 CNS.
As for `CN(C)CCCn1c2c3ccccc3ccc2c2oc(=O)c3ccccc3c21`, the TGI in the test on HCC-2998 colon is 2.46 µM; in the test with HL-60(TB) leukemia, 93.9 µM; with MDA-MB-435, more than 20 µM; with NCI/ADR-RES ovarian it was more than 26.9 µM; with OVCAR-3 ovarian it was 9.22 µM; with OVCAR-4 ovarian, more than 95 µM. The total growth inhibition concentration (TGI) amounted to 2.75 µM in the test on RXF 393 renal; 7.17 µM in the test on SF-295 CNS; 7.82 µM with SF-539 CNS; 23.6 µM with SK-MEL-5 melanoma; 12 µM with SNB-75 CNS; 9.26 µM with U251 CNS.
Regarding `c1ccc2c(Cc3c[nH]c4ccccc34)c[nH]c2c1`, the TGI in the test with HL-60(TB) leukemia is 33.4 µM; in the test with K-562 leukemia, more than 100 µM; in the test with MDA-MB-435, 31.3 µM; in the test with NCI/ADR-RES ovarian it was 62 µM; in the test with OVCAR-3 ovarian, 30.8 µM; with OVCAR-4 ovarian it was 35.3 µM. The TGI came to 33.1 µM in the test on RXF 393 renal; 43.8 µM in the test with SF-295 CNS; 27.2 µM in the test on SK-MEL-5 melanoma; 36.8 µM in the test with SNB-75 CNS; 37.2 µM in the test on U251 CNS.
Consider `CN(C)CCCNC(=O)CNC(=O)c1cc(NC(=O)c2cc(NC(=O)c3cc(NC(=O)CCNC(=O)c4cc(NC(=O)c5cc(NC(=O)c6nccn6C)cn5C)cn4C)cn3C)cn2C)cn1C`, for which the TGI with HCC-2998 colon was more than 100 µM; in the test with HL-60(TB) leukemia it was 94.1 µM; in the test on K-562 leukemia, more than 100 µM; in the test with MDA-MB-435 it was more than 100 µM; in the test on NCI/ADR-RES ovarian, more than 100 µM; with OVCAR-3 ovarian, more than 100 µM. The TGI in the test with OVCAR-4 ovarian, with SF-295 CNS, in the test with SF-539 CNS, in the test on SK-MEL-5 melanoma, in the test with SNB-75 CNS and in the test with U251 CNS was more than 100 µM each time.
On to `COC(=O)c1cc(C)ccc1CC(Cc1ccccc1C)C(=O)OC` (stereo unspecified), for which the TGI in the test on HCC-2998 colon is more than 100 µM; in the test on HL-60(TB) leukemia, 36.3 µM; in the test with K-562 leukemia, more than 100 µM; in the test with MDA-MB-435 it was 43.8 µM; with NCI/ADR-RES ovarian, more than 100 µM; with OVCAR-3 ovarian, more than 100 µM. In addition, the TGI with OVCAR-4 ovarian is more than 100 µM; with RXF 393 renal, 77.6 µM; in the test on SF-295 CNS it was more than 100 µM; in the test with SF-539 CNS it was more than 100 µM; in the test with SK-MEL-5 melanoma, 28.4 µM; in the test with SNB-75 CNS, more than 100 µM.
For `COC(=O)[C@H]1ON2O[C@@H](O[C@H]3CCCC[C@@H]3C(C)(C)c3ccccc3)C[C@@H]3CC[C@H]1[C@@]32C`, the TGI with HCC-2998 colon, with HL-60(TB) leukemia, with K-562 leukemia, with MDA-MB-435, with NCI/ADR-RES ovarian and in the test on OVCAR-3 ovarian was more than 100 µM each time. In addition, the TGI with RXF 393 renal, with SF-295 CNS, in the test with SK-MEL-5 melanoma, in the test with SNB-75 CNS and in the test with U251 CNS was more than 100 µM in each case.
On to `COc1cc(/C=C/C(=O)O)ccc1O`, for which the TGI with HCC-2998 colon, in the test on HL-60(TB) leukemia, in the test on K-562 leukemia, with MDA-MB-435, in the test on NCI/ADR-RES ovarian and in the test on OVCAR-3 ovarian was more than 100 µM in each case. In addition, the TGI with OVCAR-4 ovarian, in the test on SF-295 CNS, in the test on SF-539 CNS, in the test with SK-MEL-5 melanoma, in the test on SNB-75 CNS and in the test on U251 CNS was more than 100 µM each time.
With `Cc1cc2nc3c(C(O)CO)nn(-c4ccccc4)c3nc2cc1C` (stereo unspecified), the TGI in the test with HL-60(TB) leukemia was found to be 45.8 µM; with K-562 leukemia, 59.3 µM; with MDA-MB-435, 47.9 µM; in the test with NCI/ADR-RES ovarian, 44.7 µM; in the test on OVCAR-3 ovarian it was 35.1 µM; in the test with OVCAR-4 ovarian, 53.4 µM. The TGI in the test on RXF 393 renal is 43.6 µM; with SF-295 CNS it was 35.7 µM; with SF-539 CNS, 50.2 µM; in the test on SK-MEL-5 melanoma it was more than 100 µM; with SNB-75 CNS, 51.9 µM; with U251 CNS it was 38.4 µM.
For `COc1ccc(NC(C)=O)c(C(=O)CCNC(C)=O)c1`, the TGI with HL-60(TB) leukemia, in the test with MDA-MB-435, with NCI/ADR-RES ovarian, in the test on OVCAR-3 ovarian, in the test with OVCAR-4 ovarian and in the test on RXF 393 renal was more than 100 µM in each case. Besides, the concentration for total growth inhibition (TGI) in the test with SF-295 CNS, in the test with SF-539 CNS, with SK-MEL-5 melanoma, in the test with SNB-75 CNS and with U251 CNS was more than 100 µM throughout.
For `CC1(C)N=C(N)N=C(N)N1c1ccc(CCCCc2ccc(Cl)cc2Cl)cc1`, the TGI in the test on HCC-2998 colon was 17.4 µM; with HL-60(TB) leukemia, more than 100 µM; in the test with K-562 leukemia, more than 100 µM; in the test on MDA-MB-435, 13.9 µM; in the test on NCI/ADR-RES ovarian, more than 100 µM; in the test on OVCAR-3 ovarian it was 5.5 µM. In addition, the TGI with OVCAR-4 ovarian was 13.5 µM; with RXF 393 renal it was 20.4 µM; in the test with SF-295 CNS, 22 µM; in the test with SF-539 CNS, 8.74 µM; with SK-MEL-5 melanoma, 2.84 µM; with U251 CNS it was 15.2 µM.
